Data as given in patent US9181286B2, “Pantothenate derivatives for the treatment of neurologic disorders” (Retrophin, Inc., priority 2012, dated 2015).

Key:
HEK 293T cells = assay: Acetyl-CoA level in HEK 293T cells by mass spectrometry; format: cell-based, human; conditions: 200 μM compound, p<0.0005
Experimental: FIG. 1 is a bar graph showing the levels of acetyl CoA in human HEK 293T cells, as measured by mass spectrometry, following treatment with the compounds of Examples 2, 5, 7 and 12.
The compounds of Examples 2, 5, 7 and 12 were tested in immortalized human cells (HEK 293T). The amount of acetyl-CoA (the downstream result of PANK) following administration of the compounds of Examples 2, 5, 7 and 12 were measured by mass spectrometry.
Treatment of HEK 293T cells with 20 μM of the compound of Example 7 afforded a 38% increase in acetyl CoA over baseline (p<0.005).

[1] = test system: Escherichia coli K-12 strain SJ16; assay: SJ16 recovery (in vitro bacterial testing, growth without pantothenate); format: cell-based; conditions: test compound 8 μM in growth medium, 37° C., 18 hours, solid medium without calcium pantothenate (non-permissive)
Experimental: Thus, it serves as a useful assay in determining whether a compound can rescue an organism deficient in PANK, the cause of PKAN. Compounds of the present invention were tested for toxicity and for the ability to support growth of Escherichia coli K-12 strains SJ16 (see, e.g., Jackowski et al., J. Bacteriol., 148, 926-932, 1981) and DV70 (see, e.g., Vallari et al., J. Bacteriol., 169, 5795-5800, 1987) under permissive and non-permissive conditions. The test compound in a solvent (dimethylsulfoxide, DMSO) was added to growth medium at a final concentration of 8 μM. Solvent alone (DMSO) was added to the growth medium at a final concentration ≦0.1% as a control.
Strain SJ16 was grown at 37° C. for 18 hours on a solid medium containing agar (1.5%), M9 minimal essential salts (see, Miller, Experiments in Molecular Genetics. Cold Spring Harbor Laboratory, Cold Spring Harbor, N.Y., 1972), glucose (0.4%), methionine (50 μg/ml), and with (permissive) or without (non-permissive) calcium pantothenate (1 μM). Lack of growth with calcium pantothenate supplementation indicated toxicity. Growth without calcium pantothenate supplementation indicated the ability of the bacteria to metabolize the compound to yield pantothenate or β-alanine.

Pank1−/− mice = assay: Liver Coenzyme A (mBBr-CoA, HPLC) in Pank1−/− mice; format: in vivo
Experimental: Compounds of the invention were tested for efficacy in Pank1^−/− mice (strain 129SvJ×C57BL/6J background) which were compared with age-matched Pank1^+/+ (strain 129SvJ×C57BL/6J) littermates, ages 8-12 weeks. Each mouse was identified with a coded ear tag and weighed on the first day of testing. Each compound was administered to 4-5 mice by intraperitoneal injection at a dose of 1.2 μmoles/g body weight in 5 μL dimethylsulfoxide once daily for 5 days, and mice were then fasted overnight, weighed and euthanized. Untreated mice received 5 μL dimethylsulfoxide once daily for 5 days and then were fasted overnight prior to weighing and euthanasia. Livers were excised from each mouse, aliquots were snap-frozen in liquid nitrogen, and stored at −80° C. Within 7 days, liver samples were thawed on ice, weighed and analyzed for coenzyme A content as described below. Efficacy was indicated by a statistically significant increase in the liver Coenzyme A levels in the Pank1^−/− mice as compared to the liver from untreated Pank1^−/− mice and by equivalence in comparison with Coenzyme A levels in untreated Pank1^+/+ mice.
CoA Measurements: Extraction of Fibroblasts and Liver and Derivatization of Coenzyme A Prior to High Pressure Liquid Chromatography (HPLC) […]
Coenzyme A Quantification by HPLC […]

`COC(=O)CCNC(=O)[C@H](O)C(C)(C)COP(=O)(N[C@@H](C)C(=O)OC)Oc1ccccc1` (stereo partly drawn) [Example 2, methyl 3-((2R)-2-hydroxy-4-(((((S)-1-methoxy-1-oxopropan-2-yl)amino)(phenoxy)phosphoryl)oxy)-3,3-dimethylbutanamido)propanoate] was tested, and the “increase in acetyl CoA over baseline” value (HEK 293T cells) was 42%, the “SJ16 Recovery” value [1] was “Yes” and the “levels of CoA in PANK knockout mice (in words)” value (Pank1−/− mice; PANK knockout mice, liver mBBr CoA, FIG. 2, compared with normal mice) was “restored levels of CoA to those seen in normal mice”. The “pmol mBBR-CoA/mg Liver, Mean” value (Pank1−/− mice; pank1 KO mice, intraperitoneal 1.2 μmoles/g body weight once daily for 5 days, fasted overnight, liver, n=5) was 563.358 pmol mBBR-CoA/mg Liver.
